Data as given in ChEMBL document CHEMBL1151028, “Synthesis of -hydroxy statine through a facially selective osmylation of a chiral -amido crotonate” (Bioorg Med Chem Lett, 1995).
Where a SMILES comes first, the peptide text is derived from it. [ ]: non-standard residue; d: D form. The star is where a group is joined. Sta = CC(C)C[C@H](N)[C@@H](O)CC(=O)O; Boc = CC(C)(C)OC(=O)*; GABA = NCCCC(=O)O

Target: T1, Renin (Homo sapiens, UniProt P00797)
T1 sequence (P00797 whole entry): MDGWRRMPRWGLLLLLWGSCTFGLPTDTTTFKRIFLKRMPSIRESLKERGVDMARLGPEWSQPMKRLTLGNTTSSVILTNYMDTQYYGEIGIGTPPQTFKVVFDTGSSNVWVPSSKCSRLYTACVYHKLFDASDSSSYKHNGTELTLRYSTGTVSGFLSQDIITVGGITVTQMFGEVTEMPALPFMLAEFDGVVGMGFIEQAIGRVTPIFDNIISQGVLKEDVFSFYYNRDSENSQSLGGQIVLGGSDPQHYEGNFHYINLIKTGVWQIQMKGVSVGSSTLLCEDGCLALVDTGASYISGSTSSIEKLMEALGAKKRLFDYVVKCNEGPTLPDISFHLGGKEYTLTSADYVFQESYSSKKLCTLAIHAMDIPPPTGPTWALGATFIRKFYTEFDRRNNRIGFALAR
Assay: Inhibitory activity against renin was determined

IC50 | Compound
3.2 µM | CC(C)C[C@H](NC(=O)[C@H](Cc1cnc[nH]1)NC(=O)[C@H](Cc1ccccc1)NC(=O)OC(C)(C)C)[C@@H](O)CC(=O)NCCCC(=O)O (Boc-FH[Sta][GABA]-OH)
63 µM | CC(C)C[C@H](NC(=O)[C@H](Cc1cnc[nH]1)NC(=O)[C@H](Cc1ccccc1)NC(=O)OC(C)(C)C)[C@H](O)[C@@H](O)C(=O)NCCCC(=O)O
3 µM | CC(C)C[C@H](NC(=O)[C@H](Cc1c[nH]cn1)NC(=O)[C@H](Cc1ccccc1)NC(=O)OC(C)(C)C)[C@@H](O)[C@H](O)C(=O)NCCCC(=O)O
